Data: publication PMC10489644, “In Vitro Evaluation of the Potential for Drug Interactions by Salidroside” (Nutrients, 2023)

What was measured:
[1] = test system: CYP1A2; test: in vitro; conditions: human; for Mean Fold Induction: 48 h
Protocol: The incubation solution was aspirated and replaced with incubation solution containing the same concentrations of salidroside, vehicle, or positive inducers for an additional 24 h. The total treatment period was 48 h. After the treatment period of 48 h, the incubation solution was aspirated. Hepatocytes were washed twice with pre-warmed HBSS containing 10 mM HEPES (HBSS I) and then the remaining solution was aspirated. Hepatocytes were washed once with pre-warmed HBSS I and incubated with 140 μL of RLT (lysis buffer from RNeasy 96 Kit) supplemented with 1% β-mercaptoethanol. Plates were then stored at −70 °C in a freezer until RNA analysis. Before RNA extraction, the frozen plate was thawed, and cell lysates were transferred to 96-well plates. RNA isolation was performed using a QIAcube RNA extraction system. Reverse transcription was performed to obtain cDNA. Quantification of the selective genes by real-time quantitative polymerase chain reaction (qPCR) was performed with TaqMan universal PCR Master Mix on the Bio-rad CFX384 TouchTM Real-Time PCR System. The relative change in the mRNA level of the selected target genes induced by each test compound was expressed in relation to the vehicle control sample, and fold changes in gene expression were determined by the ΔΔCt method.

[2] = target: T1, CYP2B6 (Homo sapiens, UniProt P20813); conditions: microsomes
T1 sequence (P20813 1-491): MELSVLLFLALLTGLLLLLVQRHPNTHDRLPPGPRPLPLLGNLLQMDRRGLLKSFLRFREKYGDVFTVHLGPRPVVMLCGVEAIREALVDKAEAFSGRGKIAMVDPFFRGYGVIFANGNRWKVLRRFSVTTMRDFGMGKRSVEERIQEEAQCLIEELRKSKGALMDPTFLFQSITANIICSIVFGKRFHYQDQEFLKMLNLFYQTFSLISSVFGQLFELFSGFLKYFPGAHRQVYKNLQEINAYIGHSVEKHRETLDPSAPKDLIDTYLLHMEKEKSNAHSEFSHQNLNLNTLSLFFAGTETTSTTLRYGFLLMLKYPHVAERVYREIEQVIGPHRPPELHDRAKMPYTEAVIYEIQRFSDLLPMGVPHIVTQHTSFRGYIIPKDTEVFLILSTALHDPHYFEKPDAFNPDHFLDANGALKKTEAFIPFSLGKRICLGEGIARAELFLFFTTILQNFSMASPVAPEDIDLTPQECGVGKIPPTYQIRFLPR
Protocol: (§1) Incubation without 30 min pre-incubation, 178.5 µL of liver microsomes working was pre-incubated in a 37 °C water bath for 30 min. After the pre-incubation, 1.5 μL of test compound or control compound working solution, 60 μL of substrate working solution, and 60 μL of NADPH working solution were added; then, the reaction mixture was mixed by pipetting up and down and then incubated at 37 °C for 10 min. Incubation with 30 min pre-incubation. Next, 1.5 μL of test compound or control compound working solutions and 60 μL of NADPH working solution were added into 178.5 μL of liver microsome working solution, then the reaction mixture was mixed by pipetting up and down and then pre-incubated at 37 °C for 30 min. […]
(§2) For competitive and time-dependent CYP inhibition, the peak area ratios (PAR) of analyte/internal standard were used to semi-quantitatively determine the concentration of acetaminophen (CYP1A2 activity), 4’-hydroxydiclofenac (CYP2C9), 4’-hydroxymephenytoin (CYP2C19), dextrorphan (CYP2D6), 1’-hydroxymidazolam (CYP3A4), 6β-hydroxytestosterone (CYP3A4), hydroxybupropion (CYP2B6), and N-desethylamodiaquine (CYP2C8), with terfenadine as the internal standard by LC-MS/MS method. The HPLC-MS system utilized an Acquity UPLC system and Sciex API 4000 mass spectrometer in ESI positive mode, with quantitation employing MRM. […]

[3] = target: T2, CYP2D6 (Homo sapiens, UniProt P10635); conditions: microsomes
T2 sequence (P10635 whole entry): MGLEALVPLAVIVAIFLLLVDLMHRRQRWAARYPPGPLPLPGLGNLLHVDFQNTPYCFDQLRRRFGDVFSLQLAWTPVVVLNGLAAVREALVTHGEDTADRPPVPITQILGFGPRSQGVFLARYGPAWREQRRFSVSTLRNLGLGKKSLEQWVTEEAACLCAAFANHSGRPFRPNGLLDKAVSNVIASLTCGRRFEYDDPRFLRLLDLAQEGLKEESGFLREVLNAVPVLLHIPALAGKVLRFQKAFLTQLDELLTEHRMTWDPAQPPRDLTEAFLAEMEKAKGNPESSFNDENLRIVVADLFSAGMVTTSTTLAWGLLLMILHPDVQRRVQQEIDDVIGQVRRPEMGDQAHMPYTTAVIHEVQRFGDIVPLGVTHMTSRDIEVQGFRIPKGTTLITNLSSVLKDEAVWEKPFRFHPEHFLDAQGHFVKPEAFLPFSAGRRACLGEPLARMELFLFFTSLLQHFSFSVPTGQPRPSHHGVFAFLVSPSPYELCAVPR
Protocol: as §1, §2

[4] = set-up: method as in PMID 35684130; conditions: cited from earlier work
[5] = test system: CYP3A4/5; test: in vitro; conditions: human, microsomes
Protocol: (§3) Test compound/controls working solution or DMSO were added in 238.5 µL of liver microsomes working solution, mixed well by pipetting several times and pre-incubated in a 37 °C shaking water bath for 5 min. Following the pre-incubation, 60 µL of NADPH working solution were added, mixed well by pipetting several times, and incubated in a 37 °C shaking water bath for 10 min. Following the incubation, 300 µL of quenching solution were immediately added and vortexed for ~20 s to mix. All samples were centrifuged at 4000 rpm for 15 min at 4 °C and then the supernatant was transferred for LC-MS/MS analysis. IC50 values were determined by the Hill slope equation using Graph Pad Prism.
(§4) For competitive and time-dependent CYP inhibition, the peak area ratios (PAR) of analyte/internal standard were used to semi-quantitatively determine the concentration of acetaminophen (CYP1A2 activity), 4’-hydroxydiclofenac (CYP2C9), 4’-hydroxymephenytoin (CYP2C19), dextrorphan (CYP2D6), 1’-hydroxymidazolam (CYP3A4), 6β-hydroxytestosterone (CYP3A4), hydroxybupropion (CYP2B6), and N-desethylamodiaquine (CYP2C8), with terfenadine as the internal standard by LC-MS/MS method. The HPLC-MS system utilized an Acquity UPLC system and Sciex API 4000 mass spectrometer in ESI positive mode, with quantitation employing MRM. Samples were injected onto an Atlantis T3 5 μM column (2.1 x 50 mm). […]

[6] = target: T2, CYP2D6; test: biochemical
Protocol: as §3, §4

Q: With `OC[C@H]1O[C@@H](OCCc2ccc(O)cc2)[C@H](O)[C@@H](O)[C@@H]1O` [Salidroside] as the compound, how does the “Mean Fold Induction” value ([1]; 1 µM) read?
A: Its value is 1.3 fold.

Q: And the “Mean Fold Induction” value ([1]; 3 µM)?
A: Its value is 1.0 fold.

Q: And the “Mean Fold Induction” value ([1]; 10 µM)?
A: The value was 1.1 fold.

Q: What about the “Mean Fold Induction” value ([1]; 30 µM) of the same compound?
A: The value was 1.2 fold.

Q: What about the fold induction at 48 h, 1 µM ([1]; Mean Fold Induction) of the same compound?
A: The fold induction at 48 h, 1 µM was 0.9.

Q: What about the fold induction at 48 h, 3 µM ([1]; Mean Fold Induction) of the same compound?
A: Its fold induction at 48 h, 3 µM is 0.9.

Q: What about the fold induction at 48 h, 10 µM ([1]; Mean Fold Induction) of the same compound?
A: Its fold induction at 48 h, 10 µM is 0.9.

Q: And the fold induction at 48 h, 30 µM ([1]; Mean Fold Induction)?
A: The fold induction at 48 h, 30 µM was 0.8.

Q: What about the “IC50 Shift” value [2] of the same compound?
A: Its value is “no shift”.

Q: And the “IC50 Shift” value [3]?
A: Its value is “no shift”.

Q: And the genotoxicity [4]?
A: The genotoxicity was “not genotoxic”.

Q: What about the IC50 at 10 min [5] of the same compound?
A: Its IC50 at 10 min is over 50 µM.

Q: And the IC50 [6]?
A: The IC50 was over 50 µM.
